Consider 55 molecules from ChEMBL document CHEMBL1150338, “Prediction and identification of drug interactions with the human ATP-binding cassette transporter multidrug-resistance associated protein 2 (MRP2; ABCC2)” (J Med Chem, 2008).

SMILES strings stand for the structures. pIC50: −log10 of the molar value.

In series [1] the target is MRP2 (ABCC2) (Homo sapiens, UniProt Q92887). The series is described as follows: in vitro.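 Further: Inside-out membrane vesicles from Sf9 insect cells expressing human MRP2, measuring uptake of the estradiol glucuronide substrate, expressed as percent of untreated control.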
Sequence of MRP2 (ABCC2) (Q92887 whole entry): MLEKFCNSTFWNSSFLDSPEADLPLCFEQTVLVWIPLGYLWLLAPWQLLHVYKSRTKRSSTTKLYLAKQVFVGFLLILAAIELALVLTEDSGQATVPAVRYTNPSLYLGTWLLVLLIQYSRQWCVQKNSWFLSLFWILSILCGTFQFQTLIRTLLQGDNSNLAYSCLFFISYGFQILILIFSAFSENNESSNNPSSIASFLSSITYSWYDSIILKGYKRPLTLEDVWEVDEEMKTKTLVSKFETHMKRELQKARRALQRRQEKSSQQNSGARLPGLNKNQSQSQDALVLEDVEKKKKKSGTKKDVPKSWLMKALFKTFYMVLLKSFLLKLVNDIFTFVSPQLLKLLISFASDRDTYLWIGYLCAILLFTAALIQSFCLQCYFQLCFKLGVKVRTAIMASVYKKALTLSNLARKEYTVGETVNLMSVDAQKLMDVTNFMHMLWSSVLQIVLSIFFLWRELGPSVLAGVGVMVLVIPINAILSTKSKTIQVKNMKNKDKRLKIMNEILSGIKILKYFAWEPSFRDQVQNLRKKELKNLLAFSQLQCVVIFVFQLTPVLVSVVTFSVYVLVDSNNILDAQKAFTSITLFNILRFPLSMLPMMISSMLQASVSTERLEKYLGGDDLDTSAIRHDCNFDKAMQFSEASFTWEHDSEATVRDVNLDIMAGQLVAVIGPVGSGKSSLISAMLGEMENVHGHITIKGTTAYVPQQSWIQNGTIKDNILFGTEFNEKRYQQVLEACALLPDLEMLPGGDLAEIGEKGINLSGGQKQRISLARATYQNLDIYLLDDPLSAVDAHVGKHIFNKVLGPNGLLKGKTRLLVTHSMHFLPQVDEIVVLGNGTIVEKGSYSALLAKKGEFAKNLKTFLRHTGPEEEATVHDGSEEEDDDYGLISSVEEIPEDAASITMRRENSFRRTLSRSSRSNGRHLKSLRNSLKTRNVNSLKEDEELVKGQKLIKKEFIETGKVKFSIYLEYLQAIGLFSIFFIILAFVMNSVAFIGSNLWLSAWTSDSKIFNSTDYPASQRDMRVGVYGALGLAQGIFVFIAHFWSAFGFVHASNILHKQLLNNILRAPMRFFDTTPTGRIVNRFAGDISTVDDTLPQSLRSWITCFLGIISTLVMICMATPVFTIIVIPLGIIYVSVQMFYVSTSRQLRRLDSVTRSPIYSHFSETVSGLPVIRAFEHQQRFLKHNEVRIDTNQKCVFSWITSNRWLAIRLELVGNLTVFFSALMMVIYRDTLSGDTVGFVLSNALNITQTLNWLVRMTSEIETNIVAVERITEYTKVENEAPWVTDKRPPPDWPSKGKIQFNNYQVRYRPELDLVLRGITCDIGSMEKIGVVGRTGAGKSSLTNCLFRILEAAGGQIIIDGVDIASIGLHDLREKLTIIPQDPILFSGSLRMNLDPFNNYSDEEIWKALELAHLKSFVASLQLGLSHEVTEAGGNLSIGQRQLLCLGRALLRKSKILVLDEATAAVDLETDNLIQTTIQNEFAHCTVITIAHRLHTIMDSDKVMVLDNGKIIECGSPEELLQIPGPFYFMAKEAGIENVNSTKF
Description: Effect on human MRP2-mediated estradiol-17-beta-glucuronide transport in Sf9 cells inverted membrane vesicles relative to control
The target in series [2] is ATP-binding cassette sub-family C member 2 (Homo sapiens, UniProt Q92887). Nature of the series: Inhibition of human MRP2-mediated estradiol-17-beta-glucuronide transport in Sf9 cells inverted membrane vesicles.
Sequence of ATP-binding cassette sub-family C member 2 (Q92887 whole entry): as above
Where [3] appears, read: probe estradiol-17-beta-glucuronide.

For `CN(C)C(=O)CCSC(SCCC(=O)O)c1cccc(/C=C/c2ccc3ccc(Cl)cc3n2)c1` (stereo unspecified) [MK-571], in series [1] (sf9), the activity amounted to 9%. Further, the pIC50 (as a rule, −log10 of the IC50, conventionally taken in molar units) in series [2] was 5.00.

Turning to `O=C1OC(c2ccc(O)c(S(=O)(=O)O)c2)(c2ccc(O)c(S(=O)(=O)O)c2)c2c(Br)c(Br)c(Br)c(Br)c21` [SULFOBROMOPHTHALEIN SODIUM], the activity in series [1] (setting [3]) came to 5%.

In the case of `CC(C)[C@H](N)C(=O)OCCOCn1cnc2c(=O)[nH]c(N)nc21` [VALACYCLOVIR], the activity in series [1] (setting [3]) turned out to be 94%.

Consider `O=c1cc(-c2ccccc2)oc2cc(O)cc(O)c12` [CHRYSIN], for which, in series [1] (setting [3]), the activity amounted to 110%.

Take `CC[C@]1(O)C[C@H]2CN(CCc3c([nH]c4ccccc34)[C@@](C(=O)OC)(c3cc4c(cc3OC)N(C=O)[C@H]3[C@@](O)(C(=O)OC)[C@H](OC(C)=O)[C@]5(CC)C=CCN6CC[C@]43[C@@H]65)C2)C1` [VINCRISTINE]: the activity in series [1] (setting [3]) came out at 82%.

On to `CC(=O)Nc1ccc(S(=O)(=O)Nc2ccc([N+](=O)[O-])cc2)cc1`, for which, in series [1] (setting [3]), the activity was found to be 116%.

On to `COC(=O)[C@H]1[C@H]2C[C@@H]3c4[nH]c5cc(OC)ccc5c4CCN3C[C@H]2C[C@@H](OC(=O)c2cc(OC)c(OC)c(OC)c2)[C@@H]1OC` [RESERPINE], for which the activity in series [1] (sf9) was 37%.

With `CNC(=C[N+](=O)[O-])NCCSCc1ccc(CN(C)C)o1` [RANITIDINE], the activity in series [1] (setting [3]) came to 52%.

Consider `C[C@H](CCC(=O)O)[C@H]1CC[C@H]2[C@@H]3[C@H](O)C[C@@H]4C[C@H](O)CC[C@]4(C)[C@H]3C[C@H](O)[C@]12C` [CHOLIC ACID], for which the activity in series [1] (setting [3]) is 112%.

Turning to `CC[C@]1(O)C[C@@H]2CN(CCc3c([nH]c4ccccc34)[C@@](C(=O)OC)(c3cc4c(cc3OC)N(C)[C@H]3[C@@](O)(C(=O)OC)[C@H](OC(C)=O)[C@]5(CC)C=CCN6CC[C@]43[C@@H]65)C2)C1` [VINBLASTINE], in series [1] (setting [3]), the activity was 78%.

As for `C[C@]12CCC(=O)C=C1CC[C@@H]1[C@@H]2[C@@H](O)C[C@@]2(C)[C@H]1CC[C@]2(O)C(=O)CO` [HYDROCORTISONE], in series [1] (setting [3]), the activity worked out at 124%.

Regarding `C[C@]12C=CC(=O)C=C1CC[C@@H]1[C@@H]2[C@@H](O)C[C@@]2(C)[C@H]1CC[C@]2(O)C(=O)CO` [PREDNISOLONE], the activity in series [1] (setting [3]) is 110%.

Regarding `Cc1cn([C@H]2C[C@H](N=[N+]=[N-])[C@@H](CO)O2)c(=O)[nH]c1=O` [ZIDOVUDINE], in series [1] (setting [3]), the activity came out at 103%.

With `C[C@H](CCC(=O)NCCS(=O)(=O)O)[C@H]1CC[C@H]2[C@@H]3CC[C@@H]4C[C@H](O)CC[C@]4(C)[C@H]3CC[C@]12C` [TAUROLITHOCHOLIC ACID], the activity in series [1] (setting [3]) stood at 27%.

As to `CCS(=O)(=O)CCn1c([N+](=O)[O-])cnc1C` [TINIDAZOLE], in series [1] (setting [3]), the activity came to 55%.

In the case of `Nc1ncnc2c1ncn2CCOCP(=O)(O)O` [ADEFOVIR], in series [1] (setting [3]), the activity came out at 96%.

On to `COc1ccc([C@@H]2Sc3ccccc3N(CCN(C)C)C(=O)[C@@H]2OC(C)=O)cc1` [DILTIAZEM], for which the activity in series [1] (setting [3]) was determined as 40%.

Regarding `CCOc1ccc(NC(C)=O)cc1` [PHENACETIN], the activity in series [1] (setting [3]) amounted to 83%.

Regarding `CC[C@H]1OC(=O)[C@H](C)[C@@H](O[C@H]2C[C@@](C)(OC)[C@@H](O)[C@H](C)O2)[C@H](C)[C@@H](O[C@@H]2O[C@H](C)C[C@H](N(C)C)[C@H]2O)[C@](C)(O)C[C@@H](C)C(=O)[C@H](C)[C@@H](O)[C@]1(C)O` [ERYTHROMYCIN], the activity in series [1] (setting [3]) was 89%.

On to `CNCCCN1c2ccccc2CCc2ccccc21` [DESIPRAMINE], for which the activity in series [1] (setting [3]) is 57%.

With `CCOc1ccc(-c2nc3cc(-c4nc5cc(N6CCN(C)CC6)ccc5[nH]4)ccc3[nH]2)cc1`, in series [1] (setting [3]), the activity was determined as 70%.

Turning to `C#CC1(O)CC[C@H]2[C@@H]3CCc4cc(O)ccc4[C@H]3CC[C@@]21C` (single isomer, unassigned) [ETHINYL ESTRADIOL], the activity in series [1] (setting [3]) amounted to 53%.

Turning to `CC(C)C(=O)Nc1ccc([N+](=O)[O-])c(C(F)(F)F)c1` [FLUTAMIDE], the activity in series [1] (setting [3]) came out at 126%.

Regarding `COc1ccc2c(c1)[C@]13CCCC[C@@H]1[C@H](C2)N(C)CC3` [DEXTROMETHORPHAN], the activity in series [1] (setting [3]) came to 57%.

Take `CNC(=C[N+](=O)[O-])NCCSCc1csc(CN(C)C)n1` [NIZATIDINE]: in series [1] (setting [3]), the activity was found to be 110%.

Regarding `Cc1nc2sccn2c(=O)c1CCN1CCC(=C(c2ccc(F)cc2)c2ccc(F)cc2)CC1` [RITANSERIN], the activity in series [1] (setting [3]) turned out to be 86%.

With `CCCCOc1ccc(OCCCN2CCOCC2)cc1` [PRAMOXINE], the activity in series [1] (setting [3]) came out at 69%.

`Cc1cccc(C)c1OCC(=O)N[C@@H](Cc1ccccc1)[C@@H](O)C[C@H](Cc1ccccc1)NC(=O)[C@H](C(C)C)N1CCCNC1=O` [LOPINAVIR]: the activity in series [1] (sf9) was found to be 33%.

As for `C[C@@H]1CN(c2c(F)c(N)c3c(=O)c(C(=O)O)cn(C4CC4)c3c2F)C[C@H](C)N1` [SPARFLOXACIN], the activity in series [1] (setting [3]) came to 138%.

For `NC12CC3CC(CC(C3)C1)C2` [AMANTADINE], the activity in series [1] (setting [3]) came out at 101%.

As to `CC(=O)O[C@H]1C[C@@]2(C)[C@@H](C[C@@H](O)[C@H]3[C@@]4(C)CC[C@@H](O)[C@@H](C)[C@@H]4CC[C@@]32C)/C1=C(\CCC=C(C)C)C(=O)O` [FUSIDIC ACID], in series [1] (setting [3]), the activity came to 72%.

For `CNC(=O)c1cccnc1` [NICOTINYL METHYLAMIDE], the activity in series [1] (setting [3]) was 101%.

Regarding `CCC1=C(C)CN(C(=O)NCCc2ccc(S(=O)(=O)NC(=O)N[C@H]3CC[C@H](C)CC3)cc2)C1=O` [GLIMEPIRIDE], the activity in series [1] (setting [3]) was found to be 142%.

Turning to `S=C=NCCc1ccccc1` [PHENETHYLISOTHIOCYANATE], in series [1] (setting [3]), the activity was 94%.

Regarding `Cc1ccnc2c1NC(=O)c1cccnc1N2C1CC1` [NEVIRAPINE], the activity in series [1] (setting [3]) turned out to be 121%.

For the molecule `CC(C(=O)O)c1cccc(C(=O)c2ccccc2)c1` (stereo unspecified) [KETOPROFEN], the activity in series [1] (setting [3]) worked out at 120%.

For `C[C@@H](NCCc1ccc(O)cc1)[C@@H](O)c1ccc(O)cc1` [RITODRINE], the activity in series [1] (setting [3]) stood at 113%.

As for `COc1ccc(CCN(C)CCCC(C#N)(c2ccc(OC)c(OC)c2)C(C)C)cc1OC` (stereo unspecified), the activity in series [1] (setting [3]) is 56%.

Consider `C[C@]12CC[C@H]3[C@@H](CCC4=CC(=O)CC[C@@]43C)[C@@H]1CC[C@@H]2O` [TESTOSTERONE], for which, in series [1] (setting [3]), the activity stood at 140%.

For `CC(C)(C)NC(=O)[C@@H]1C[C@@H]2CCCC[C@@H]2CN1C[C@@H](O)[C@H](Cc1ccccc1)NC(=O)[C@H](CC(N)=O)NC(=O)c1ccc2ccccc2n1`, in series [1] (setting [3]), the activity stood at 41%.

Regarding `NC(=O)N1c2ccccc2C=Cc2ccccc21` [CARBAMAZEPINE], the activity in series [1] (setting [3]) was determined as 86%.

For the molecule `CC1=C(CC(=O)O)c2cc(F)ccc2/C1=C\c1ccc(S(C)(=O)=O)cc1` [EXISULIND], the activity in series [1] (setting [3]) came out at 113%.

In the case of `COC(=O)C1=C(C)NC(C)=C(C(=O)OC(C)C)C1c1cccc2nonc12` (stereo unspecified) [ISRADIPINE], the activity in series [1] (setting [3]) is 46%.

`COc1ccc(Cl)cc1C(=O)NCCc1ccc(S(=O)(=O)NC(=O)NC2CCCCC2)cc1` [GLYBURIDE]: in series [1] (setting [3]), the activity was found to be 304%.

For the molecule `CCC[C@@]1(CCc2ccccc2)CC(O)=C([C@H](CC)c2cccc(NS(=O)(=O)c3ccc(C(F)(F)F)cn3)c2)C(=O)O1`, the activity in series [1] (setting [3]) worked out at 88%.

Turning to `NCCCC[C@H](N[C@@H](CCc1ccccc1)C(=O)O)C(=O)N1CCC[C@H]1C(=O)O` [LISINOPRIL ANHYDROUS], the activity in series [1] (setting [3]) worked out at 43%.

Consider `CN1[C@@H]2CC[C@H]1C[C@@H](OC(=O)C(CO)c1ccccc1)C2` (stereo partly specified) [ATROPINE], for which, in series [1] (setting [3]), the activity stood at 59%.

Regarding `Nc1ccc(C(=O)NCC(=O)O)cc1` [AMINOHIPPURIC ACID], in series [1] (setting [3]), the activity is 46%.

Consider `O=C1C(CC[S+]([O-])c2ccccc2)C(=O)N(c2ccccc2)N1c1ccccc1` (stereo unspecified) [SULFINPYRAZONE], for which the activity in series [1] (setting [3]) was 150%.

Consider `COc1cc([C@@H]2c3cc4c(cc3[C@@H](O[C@@H]3O[C@@H]5CO[C@@H](C)O[C@H]5[C@H](O)[C@H]3O)[C@H]3COC(=O)[C@H]23)OCO4)cc(OC)c1O` [ETOPOSIDE], for which, in series [1] (setting [3]), the activity turned out to be 110%.

In the case of `CCCC(CCC)C(=O)O` [VALPROIC ACID], the activity in series [1] (setting [3]) was 94%.

Consider `CCN(CC)Cc1cc(Nc2ccnc3cc(Cl)ccc23)ccc1O`, for which the activity in series [1] (setting [3]) came out at 60%.

Regarding `C[C@]12CC[C@H]3[C@@H](CCC4=CC(=O)CC[C@@H]43)[C@@H]1CC[C@@H]2O` [NANDROLONE], the activity in series [1] (setting [3]) came out at 106%.

On to `CC(=O)[C@H]1CC[C@H]2[C@@H]3CCC4=CC(=O)CC[C@]4(C)[C@H]3CC[C@]12C` [PROGESTERONE], for which, in series [1] (setting [3]), the activity amounted to 123%.

As for `CC1(C)S[C@@H]2[C@H](NC(=O)Cc3ccccc3)C(=O)N2[C@H]1C(=O)O` [PENICILLIN G], in series [1] (setting [3]), the activity stood at 76%.
